# Assay results: patent US20260098037A1, “COMPOUND CONTAINING MULTI-FUSED RING STRUCTURE” (Chia Tai Tianqing Pharmaceutical Group Co., Ltd., priority 2023, published 2026)
# Read-outs that look alike come from different tables or passages of the source.
# Legend:
# [1] = target: GLP1R (Homo sapiens, UniProt P43220); experiment: In vitro cellular cAMP expression activity assay (CRE-luciferase reporter); assay type: cell-based; details: HEK293/CRE-Luc/GLP1R cells, 6 h incubation, luciferase luminescence; read-out: HEK293/CRE-Luc/GLP-1R EC50
# GLP1R, sequence (P43220 24-463): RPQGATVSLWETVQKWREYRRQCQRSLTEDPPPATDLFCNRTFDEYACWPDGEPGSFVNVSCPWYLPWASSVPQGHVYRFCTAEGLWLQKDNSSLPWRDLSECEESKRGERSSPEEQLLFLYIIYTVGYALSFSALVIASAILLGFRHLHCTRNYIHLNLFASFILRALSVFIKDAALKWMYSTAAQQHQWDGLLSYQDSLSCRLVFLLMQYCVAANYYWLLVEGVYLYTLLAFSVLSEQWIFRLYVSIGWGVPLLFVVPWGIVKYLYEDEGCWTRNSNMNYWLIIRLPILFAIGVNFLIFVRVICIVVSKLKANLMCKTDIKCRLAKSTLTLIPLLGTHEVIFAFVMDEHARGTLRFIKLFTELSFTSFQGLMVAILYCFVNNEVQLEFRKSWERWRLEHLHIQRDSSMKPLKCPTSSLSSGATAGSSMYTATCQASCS
# Protocol: HEK293/CRE-Luc/GLP1R cells (manufacturer: GenScript Biotech Corporation) in a good growth state were taken, washed with PBS, and digested with pancreatin. The digestion was terminated with a complete medium. The cells were collected into a centrifuge tube, adjusted to a cell density of 4×10^5 cells/mL using a DMEM+2% FBS medium, seeded in a 96-well plate (100 μL/well), and incubated at 37° C. for 1 h. After 1 h, the compounds were added using a nanoliter pipettor such that the final concentrations of the compounds were 10 nM-0.0006 nM. The compounds were added in duplicate, and a control was set. After the cells were incubated in a cell incubator for another 6 h, a detection reagent Luciferase (manufacturer: Vazyme Biotech, 50 μL/well) was added. The plate was left to stand at room temperature for 3 min to fully lyse the cells, and the luminescence was detected on a PerkinElmer Envision microplate reader. A dose-response curve was fitted by four-parameter analysis, and the EC50 was calculated.
# [2] = In vitro stability assay in liver microsome (HLM); assay type: in vitro ADME, human; details: liver microsome 0.5 mg/mL, NADPH+MgCl2, PBS pH 7.4, 1 h
# Protocol: (§1) Liver microsome incubation samples were prepared by mixing a PBS buffer (pH 7.4), a liver microsome solution (0.5 mg/mL), a test compound, and an NADPH+MgCl2 solution, and incubated at […] and 300 rpm for 1 h. Zero-hour samples were prepared by mixing a PBS buffer (pH 7.4), a liver microsome solution (0.5 mg/mL), and a test compound. An acetonitrile solution containing an internal standard was added to the samples, and supernatants were prepared by protein precipitation, diluted, and then assayed by LC/MS/MS.
# [3] = In vivo pharmacokinetic evaluation in mice; details: mouse, plasma, ICR mice; for bioavailability: ig 3 mg/kg vs iv 0.5 mg/kg, read-out: Absolute bioavailability F; for MRT last: read-out: MRT(0-24); for half-life: read-out: t½ (converted); for AUC(0-t): read-out: AUC(0-24)
# Protocol: ICR mice of 18-22 g were randomized into 4 groups of 9 mice after 3-5 days of acclimatization. […]
# The test animals (ICR mice) were fasted from 12 h pre-dose to 4 h post-dose, and given free access to water throughout the study.
# Orbital blood samples of about 0.1 mL were collected at 15 min, 30 min, 1 h, 2 h, 3 h, 4 h, 6 h, 8 h, 10 h, and 24 h post-dose for the intragastric administration, and at 5 min, 10 min, 30 min, 1 h, 2 h, 4 h, 6 h, 8 h, 10 h, and 24 h post-dose for the intravenous administration. The blood sampling was performed at 3-4 time points for each mouse, 3 mice per time point. The collected whole blood was transferred into EDTA-K2-containing centrifuge tubes and stored at 4° C., and, within 1 h, centrifuged at 4° C. at 4000 rpm for 10 min to separate the plasma. All the plasma samples were immediately stored after collection at −20° C. for testing.
# 30 μL of the plasma sample to be tested and a standard curve sample were pipetted and added with 300 μL of an acetonitrile solution containing an internal standard (20 ng/mL of diazepam). The mixture was shaken to mix well for 5 min, and centrifuged at 13,000 rpm for 10 min. 80 μL of the supernatant was taken and diluted with 80 μL of ultrapure water. After a thorough mixing, 2 μL of the resulting sample was taken for liquid chromatography-mass spectrometry, and the chromatogram was recorded.
# [4] = In vitro stability assay in liver microsome (MLM); assay type: in vitro ADME, mouse; details: liver microsome 0.5 mg/mL, NADPH+MgCl2, PBS pH 7.4, 1 h
# Protocol: as §1
# [5] = system: GLP-1R humanized C57BL/6J mice; experiment: Evaluation of hypoglycemic effect in mice (intraperitoneal glucose challenge); assay type: in vivo; details: intragastric dose 1 mg/kg, glucose 2 g/kg ip 5 h after administration
# Description: GLP-1R humanized C57BL/6J mice of 20-22 g were used in this study after 3 days of acclimatization. All the animals were deprived of food but not water until the end of study. Blood samples were collected from the tail tip of the mice.
# The test animals were deprived of food but not water overnight before the study. The next day, blood was collected from all the animals for blood glucose testing, and the animals were randomized into a normal control group, a positive control group, and test compound groups by blood glucose and body weight, with 6 animals in each group. The groups were then given intragastric doses, and 5 h after the administration, an intraperitoneal injection of glucose solution (2 g/kg) was given. The blood glucose concentration was measured at 0.25 h, 0.5 h, 1 h, 2 h, and 3 h after the glucose injection. The blood glucose was recorded throughout the study, and the area under the blood glucose-time curve AUC0-180 min Glu was calculated.
EC50 [1] [nM],HLM Remaining (T = 60 min) [2] [%],bioavailability ([3]; po) [%],"MRT last ([3]; po, ig, dose 3 mg/kg) [h]","half-life ([3]; po, ig, dose 3 mg/kg) [min]","MRT last ([3]; iv, dose 0.5 mg/kg) [h]","half-life ([3]; iv, dose 0.5 mg/kg) [min]","AUC(0-inf) ([3]; po, ig, dose 3 mg/kg) [ng·h/mL]","AUC(0-t) ([3]; po, ig, dose 3 mg/kg) [ng·h/mL]","AUC(0-inf) ([3]; iv, dose 0.5 mg/kg) [ng·h/mL]","AUC(0-t) ([3]; iv, dose 0.5 mg/kg) [ng·h/mL]",MLM Remaining (T = 60 min) [4] [%],Structure (SMILES),AUC0-180 min Glu reduction (%) [5] [%]
< 0.5,89.53,37.8,10.1,332,6.78,346,4910,4560,2170,2060,90.40,Cc1cc(-n2nc3c(c2-n2ccn(-c4ccc5c(c4F)N(C)C(=O)C54CC4)c2=O)[C@H](C)N(C(=O)c2cc4cc([C@H]5CCOC(C)(C)C5)ccc4n2[C@@]2(c4noc(=O)[nH]4)C[C@@H]2C)CC3)cc(C)c1F [Compound 14],79
< 0.5,86.20,–,–,–,–,–,–,–,–,–,87.54,Cc1cc(-c2nn3c(c2-n2ccn(-c4ccc5c(c4)N(C)C(=O)C54CC4)c2=O)[C@H](C)N(C(=O)c2cc4cc([C@H]5CCOC(C)(C)C5)ccc4n2[C@@]2(c4noc(=O)[nH]4)C[C@@H]2C)CC3)cc(C)c1F [Compound 27-D],75
< 0.5,98.60,35.2,7.8,256,5.16,276,4780,4640,2260,2220,94.32,"Cc1cc(-n2nc3c(c2-n2ccn(-c4ccc5c(c4)N(C)C(=O)C54CC4)c2=O)[C@H](C)N(C(=O)c2cc4cc(C5CCOC(C)(C)C5)ccc4n2[C@@]2(c4noc(=O)[nH]4)C[C@@H]2C)CC3)cc(C)c1F (single isomer, unassigned) [Compound 5]",83
